For 15 molecules, EC50 results are on record in US20200071310A1, “N-ARYL PYRAZOLES AS NRF2 REGULATORS” (GLAXOSMITHKLINE INTELLECTUAL PROPERTY DEVELOPMENT LIMITED, priority 2016, published 2020).

For orientation: EC50 means the concentration at which the effect is half-maximal.

SMILES strings stand for the structures. A value given as a limit tells only on which side of the number the result lay.

Experiment [1] addresses T1, Keap1 (321-609) Kelch domain / TAMRA-labeled NRF2 peptide (ETGE motif) (Homo sapiens, UniProt Q14145).
T1 construct: the Kelch domain (321-609) of Keap1 is used
Nature of the experiment: NRF2-Keap1 FP Assay. The experiment is classed as binding. To be noted: Keap1 (321-609) 20 nM, Tamra labeled peptide 8 nM. An excerpt:
One model for the NRF2-Keap1 interaction is through two binding sites in the Neh2 domain on NRF2. The two sites are referred to as the DLG binding motif (latch domain, uM affinity) and the ETGE binding motif (hinge domain, nM affinity). The Keap1 protein consists of an N-terminal region (NTR), a broad complex, tramtrack, and brick a' brac domain (BTB), an intervening region (IVR), a double glycine repeat domain (DGR or Kelch), and a C-terminal region. The DLG and ETGE motifs of NRF2's Neh2 domain bind to the Kelch domain of Keap1 at different affinities. In the Keap1 Kelch fluorescence polarization (FP) assay, a TAMRA-labeled 16mer peptide (AFFAQLQLDEETGEFL) containing the ETGE motif of NRF2 and the Kelch domain (321-609) of Keap1 is used. The assay determines if a compound interferes with the binding between Keap1 […] and the TAMRA-labeled peptide. Binding of TAMRA-labeled NRF2 peptide to Keap1 (321-609) results in a high FP signal. If a compound interferes with the binding between the peptide and the protein, it will cause the assay signal to decrease. Thus, assay signal is inversely proportional to binding inhibition.
100 nl of 100× compound dose response curves (serial 3-fold dilutions) in DMSO were stamped using an Echo liquid handling system (Labcyte) into 384-well low volume black assay plates (Greiner, #784076), with DMSO in columns 6 and 18. The top concentration of compound was located in columns 1 and 13. Keap1 (321-609) was diluted to 40 nM (2×) in 1× assay buffer (50 mM Tris, pH 8.0, 100 mM NaCl, 5 mM MgCl2, 1 mM DTT, 2 mM CHAPS, and 0.005% BSA) and 5 ul was added using a Multidrop Combi (Thermo Electron Corporation) equipped with a metal tip dispenser to all wells of the compound plate, except column 18. Column 18 received only 5 ul of assay buffer. Immediately, 5 uL of 16 nM (2×) of Tamra labeled peptide (AFFAQLQLDEETGEFL, 21st Century Biochemicals) was added to all wells of the plate. The plates were spun at 500 rpm for 1 min, incubated for 1 hr at room temperature, and read on an Analyst GT (Molecular Devices) equipped with excitation (530/25 nm) and emission (580/10 nm) filters designed for Tamra probes. A 561 nm dichroic mirror was also used in the Analyst. The final assay concentrations of Keap1l (321-609) and Tamra labeled peptide were 20 nM and 8 nM, respectively. Fluorescence measurements, represented as mP, were used in the transformation of the data. Compound activity was calculated based on percent inhibition, normalized against controls in the assay (Control 1 contains the Tamra peptide and Keap1 (321-609) together (0% response) and control 2 contains the Tamra peptide alone (100% response)). Data analysis was handled using the software package Abase XE (Surrey, United Kingdom. The % inhibition values were calculated by the equation:
100−(100*((compound response−average control 2)/(average control 1−average control2))).
For calculation of pIC50s, Abase XE used a four parameter equation.
IC50s<1 nM (+++++), IC50s 1 nM-10 nM (++++), IC50s 10-100 nM (+++), IC50s 100 nM-1 μM (++), IC50s 1-10 μM (+), IC50s>10 μM (−), or were not determined (ND).

Experiment [2] deals with NQO1 specific enzyme activity in BEAS-2B cells. Nature of the experiment: BEAS-2B NQO1 MTT Assay. The experiment is classed as cell-based. To be noted: Homo sapiens; NQO1 specific activity induction, BEAS-2B cells, 48 hours; read-out: EC50. An excerpt: NAD(P)H:quinone oxidoreductase 1 (NQO1), also called DT diaphorase, is a homodimeric FAD-containing enzyme that catalyzes obligatory NAD(P)H-dependent two-electron reductions of quinones and protects cells against the toxic and neoplastic effects of free radicals and reactive oxygen species arising from one-electron reductions. The transcription of NQO1 is finely regulated by NRF2, and thus NQO1 activity is a good marker for NRF2 activation. On day one, frozen BEAS-2B cells (ATCC) were thawed in a water bath, counted, and re-suspended at a concentration of 250,000 cells/mL. Fifty microliters of cells were plated in 384 well black clear-bottomed plates. Plates were incubated at 37° C., 5% CO2 overnight. On day two, plates were centrifuged and 50 nL of compound or controls were added to the cells. Plates were then incubated at 37° C., 5% CO2 for 48 hours. On day four, medium was aspirated from the plate and crude cell lysates were made by adding 13 uL of 1× Cell Signaling Technologies lysis buffer with 1 Complete, Mini, EDTA-free Protease Inhibitor Tablet (Roche) for each 10 mL of lysis buffer. After lysis plates were incubated for 20 minutes at room temperature. Two microliters of lysate were removed for use in Cell Titer Glo assay (Promega) and MTT cocktail was prepared (Prochaska et. al. 1998) for measurement of NQO1 activity. Fifty microliters of MTT cocktail is added to each well, plate is centrifuged, and analyzed on an Envision plate reader (Perkin Elmer) using Absorbance 570 nm label for 30 minutes. Product formation was measured kinetically and the pEC50 of NQO1 specific activity induction was calculated by plotting the change in absorbance (Delta OD/min) versus the log of compound concentration followed by 3-parameter fitting. pEC50 is the negative log of the EC50.

T1 sequence (Q14145 321-609): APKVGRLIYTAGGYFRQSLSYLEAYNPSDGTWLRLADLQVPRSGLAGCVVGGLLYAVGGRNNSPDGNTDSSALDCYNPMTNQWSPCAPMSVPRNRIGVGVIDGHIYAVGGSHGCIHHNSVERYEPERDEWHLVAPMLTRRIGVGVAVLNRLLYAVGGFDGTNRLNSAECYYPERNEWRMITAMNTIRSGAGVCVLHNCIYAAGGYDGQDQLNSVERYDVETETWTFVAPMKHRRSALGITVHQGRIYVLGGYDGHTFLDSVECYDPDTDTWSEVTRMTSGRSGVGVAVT

On to `COc1cc([N+](=O)[O-])ccc1S(=O)(=O)N(C)Cc1cccc(-n2ncc(C(=O)O)c2[C@@H]2C[C@H]2c2cn(C)nn2)c1` (racemic) [Example 44, 1-(3-((2-methoxy-N-methyl-4-nitrophenylsulfonamido)methyl)phenyl)-5-((trans)-2-(1-methyl-1H-1,2,3-triazol-4-yl)cyclopropyl)-1H-pyrazole-4-carboxylic acid], for which the results for the EC50 in experiment [1] and in experiment [2] were 100 to 1000 nM and 1000 to 10000 nM, respectively.
Consider `CN(Cc1cccc(-n2ncc(C(=O)O)c2[C@@H]2C[C@H]2c2cn(C)nn2)c1)S(=O)(=O)c1cccc2cccnc12` (racemic) [Example 51, 5-((trans)-2-(1-methyl-1H-1,2,3-triazol-4-yl)cyclopropyl)-1-(3-((N-methylquinoline-8-sulfonamido)methyl)phenyl)-1H-pyrazole-4-carboxylic acid], for which the EC50 in experiment [1] and in experiment [2] was 100 to 1000 nM each time.
On to `CN(Cc1cccc(-n2ncc(C(=O)O)c2[C@@H]2C[C@H]2c2cn(C)nn2)c1)S(=O)(=O)c1ccccc1Oc1ccccc1` (relative stereo) [Example 38, 5-((trans)-2-(1-methyl-1H-1,2,3-triazol-4-yl)cyclo-propyl)-1-(3-((N-methyl-2-phenoxyphenyl-sulfonamido)-methyl)phenyl)-1H-pyrazole-4-carboxylic acid], for which the figures for the EC50 in experiment [1] and in experiment [2] were 10 to 100 nM and 1000 to 10000 nM, respectively.
In the case of `COc1ccc(Cl)cc1S(=O)(=O)N(C)Cc1cccc(-n2ncc(C(=O)O)c2[C@@H]2C[C@H]2c2cn(C)nn2)c1` (racemic) [Example 40, 1-(3-((5-chloro-2-methoxy-N-methylphenyl-sulfonamido)-methyl)phenyl)-5-((trans)-2-(1-methyl-1H-1,2,3-triazol-4-yl)cyclo-propyl)-1H-pyrazole-4-carboxylic acid], the results for the EC50 in experiment [1] and in experiment [2] were 100 to 1000 nM and 1000 to 10000 nM, respectively.
Turning to `C[C@H]1Cc2ccc(C(F)(F)F)cc2S(=O)(=O)N([C@H]2CCc3c2cccc3-n2ncc(C(=O)O)c2[C@@H]2C[C@H]2c2cn(C)nn2)C1` [Example 26a, 1-((S)-1-((S)-4-Methyl-1,1-dioxido-8-(trifluoromethyl)-4,5-dihydrobenzo[f][1,2]thiazepin-2(3H)-yl)-2,3-dihydro-1H-inden-4-yl)-5-((1R,2R)-2-(1-methyl-1H-1,2,3-triazol-4-yl)cyclopropyl)-1H-pyrazole-4-carboxylic acid], the EC50 in experiment [1] lay within 10 to 100 nM; in experiment [2], 100 to 1000 nM.
Turning to `CN(Cc1cccc(-n2ncc(C(=O)O)c2[C@@H]2C[C@H]2c2cn(C)nn2)c1)S(=O)(=O)c1ccccc1` (racemic) [Example 48, 5-((trans)-2-(1-methyl-1H-1,2,3-triazol-4-yl)cyclopropyl)-1-(3-((N-methylphenylsulfonamido)methyl)phenyl)-1H-pyrazole-4-carboxylic acid], the EC50 in experiment [1] lay in the range of 100 to 1000 nM; in experiment [2] it was 1000 to 10000 nM.
Turning to `CC[C@@H]1CN(Cc2cccc(-n3ncc(C(=O)O)c3[C@@H]3C[C@H]3c3cn(C)nn3)c2)S(=O)(=O)c2ccccc2O1` [Example 3], the concentration for a half-maximal effect (EC50) in experiment [1] was 1 to 10 nM; in experiment [2] it was 100 to 1000 nM.
In the case of `CC[C@H]1Cc2ccc(C(F)(F)F)cc2S(=O)(=O)N(Cc2cccc(-n3ncc(C(=O)O)c3[C@@H]3C[C@H]3c3cn(C)nn3)c2)C1` [Example 20, 1-(3-(((S)-4-ethyl-1,1-dioxido-8-(trifluoromethyl)-4,5-dihydrobenzo[f][1,2]thiazepin-2(3H)-yl)methyl)phenyl)-5-((1R,2R)-2-(1-methyl-1H-1,2,3-triazol-4-yl)cyclopropyl)-1H-pyrazole-4-carboxylic acid], the results for the EC50 in experiment [1] and in experiment [2] were less than 1 nM and 1 to 10 nM, respectively.
As to `C[C@@H]1Cc2cc(C(F)(F)F)ccc2S(=O)(=O)N(Cc2cccc(-n3ncc(C(=O)O)c3[C@@H]3C[C@H]3c3cn(C)nn3)c2)C1` (racemic) [Example 18, 1-(3-((4-methyl-1,1-dioxido-7-(trifluoromethyl)-4,5-dihydro-benzo[f][1,2]thiazepin-2(3H)-yl)methyl)phenyl)-5-((trans)-2-(1-methyl-1H-1,2,3-triazol-4-yl)cyclopropyl)-1H-pyrazole-4-carboxylic acid], the EC50 lay in the range of 1 to 10 nM in experiment [1] and 10 to 100 nM in experiment [2].
As to `Cn1cc([C@@H]2C[C@H]2c2c(C(=O)O)cnn2-c2cccc(CN3Cc4cc(Br)ccc4OC(C)(C)C3)c2)nn1` (racemic) [Example 13], the EC50 is 1 to 10 nM in experiment [1] and 100 to 1000 nM in experiment [2].
`Cc1ccccc1S(=O)(=O)N(C)Cc1cccc(-n2ncc(C(=O)O)c2[C@@H]2C[C@H]2c2cn(C)nn2)c1` (racemic) [Example 42, 1-(3-((N,2-dimethylphenylsulfonamido)methyl)phenyl)-5-((trans)-2-(1-methyl-1H-1,2,3-triazol-4-yl)cyclopropyl)-1H-pyrazole-4-carboxylic acid]: the values for the EC50 in experiment [1] and in experiment [2] were 100 to 1000 nM and 1000 to 10000 nM, respectively.
Turning to `C[C@H]1Cc2ccccc2S(=O)(=O)N(Cc2cccc(-n3ncc(C(=O)O)c3[C@@H]3C[C@H]3c3cn(C)nn3)c2)C1` [Example 15, 1-(3-(((S)-4-methyl-1,1-dioxido-4,5-dihydrobenzo[f][1,2]thiazepin-2(3H)-yl)methyl)phenyl)-5-((trans)-2-(1-methyl-1H-1,2,3-triazol-4-yl)cyclopropyl)-1H-pyrazole-4-carboxylic acid], the EC50 was in the range of 10 to 100 nM in experiment [1] and 1000 to 10000 nM in experiment [2].
The corresponding values for `CC[C@@H]1CN(Cc2cc(-n3ncc(C(=O)O)c3[C@@H]3C[C@H]3c3cn(C)nn3)ccc2C)Cc2ccccc2O1` [Example 28] are 100 to 1000 nM and 100 to 1000 nM.
`C[C@H]1Cc2ccc(Br)cc2S(=O)(=O)N(Cc2cccc(-n3ncc(C(=O)O)c3[C@@H]3C[C@H]3c3cn(C)nn3)c2)C1` (racemic) [Example 17, 1-(3-((8-bromo-4-methyl-1,1-dioxido-4,5-dihydrobenzo[f][1,2]thiazepin-2(3H)-yl)methyl)phenyl)-5-((trans)-2-(1-methyl-1H-1,2,3-triazol-4-yl)cyclopropyl)-1H-pyrazole-4-carboxylic acid]: the values for the EC50 in experiment [1] and in experiment [2] were 1 to 10 nM and 100 to 1000 nM, respectively.
With `CCCCCCN(Cc1cccc(-n2ncc(C(=O)O)c2[C@@H]2C[C@H]2c2cn(C)nn2)c1)S(=O)(=O)c1ccc(Oc2ccccc2)cc1` (relative stereo) [Example 36, 1-(3-((N-hexyl-4-phenoxyphenylsulfonamido)methyl)phenyl)-5-((trans)-2-(1-methyl-1H-1,2,3-triazol-4-yl)-cyclopropyl)-1H-pyrazole-4-carboxylic acid], the half-maximal effective concentration (EC50) in experiment [1] lay in the range of 10 to 100 nM; in experiment [2] it was 100 to 1000 nM.
